The source made the active and inactive calls.
Assays:
[1] = THP-1 cell cytotoxicity, dose response, cytotoxicity control for non-replicating M. tuberculosis project (AID 489025); assay type: functional
[2] = target: Sphingosine 1-phosphate receptor 1 (Homo sapiens, UniProt P21453); assay type: functional;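 note: Tango beta-arrestin reporter U2OS cells stimulated with S1P near its EC80; inhibitor potency meaning antagonism of receptor activation by the natural agonist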
Coagulation factor XII = target: T1, Coagulation factor XII (Homo sapiens, UniProt P00748); assay type: functional;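 note: activated factor XIIa alpha cleaving a fluorogenic AMC peptide substrate; inhibitor potency from loss of enzyme activity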
T1 sequence (P00748 whole entry): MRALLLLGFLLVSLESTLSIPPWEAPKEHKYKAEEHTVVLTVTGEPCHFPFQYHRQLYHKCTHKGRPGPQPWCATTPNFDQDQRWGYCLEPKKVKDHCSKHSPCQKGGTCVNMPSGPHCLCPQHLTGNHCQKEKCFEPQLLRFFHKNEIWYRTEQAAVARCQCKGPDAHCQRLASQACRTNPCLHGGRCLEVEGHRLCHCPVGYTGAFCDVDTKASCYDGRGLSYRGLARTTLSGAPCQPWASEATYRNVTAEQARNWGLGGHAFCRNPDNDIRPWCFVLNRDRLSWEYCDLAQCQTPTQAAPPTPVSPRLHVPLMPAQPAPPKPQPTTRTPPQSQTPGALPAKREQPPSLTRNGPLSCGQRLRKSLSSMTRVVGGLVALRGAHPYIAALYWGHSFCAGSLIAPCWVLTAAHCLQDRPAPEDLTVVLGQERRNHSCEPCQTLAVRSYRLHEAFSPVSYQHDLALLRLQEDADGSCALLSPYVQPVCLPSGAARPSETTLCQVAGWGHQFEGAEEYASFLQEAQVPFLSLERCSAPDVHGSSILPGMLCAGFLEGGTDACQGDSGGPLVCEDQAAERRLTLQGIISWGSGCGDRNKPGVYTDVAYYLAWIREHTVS

14-3-3 protein gamma = 14-3-3 protein gamma (Homo sapiens, UniProt P61981); assay: modulators of 14-3-3 gamma client binding – dose response (AID 711); assay type: functional
Sequence of 14-3-3 protein gamma (P61981 whole entry, the tested form may be a part): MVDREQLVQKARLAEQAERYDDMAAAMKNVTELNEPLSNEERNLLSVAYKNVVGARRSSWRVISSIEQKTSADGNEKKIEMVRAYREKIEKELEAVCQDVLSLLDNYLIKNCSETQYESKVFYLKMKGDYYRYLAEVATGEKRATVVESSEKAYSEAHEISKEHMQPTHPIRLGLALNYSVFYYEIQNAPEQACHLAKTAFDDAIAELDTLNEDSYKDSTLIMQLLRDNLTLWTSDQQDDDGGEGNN

[3] = target: T2, RNA-binding protein pos-1 (Caenorhabditis elegans, UniProt G5EF15); assay: disruptors of C. elegans POS-1 RNA interaction – biochemical, fluorescence polarization, dose response (AID 1964);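 note: purified POS-1 fused to maltose binding protein made in E. coli; potency of compounds blocking POS-1 binding to fluorescent RNA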
T2 sequence (G5EF15 whole entry): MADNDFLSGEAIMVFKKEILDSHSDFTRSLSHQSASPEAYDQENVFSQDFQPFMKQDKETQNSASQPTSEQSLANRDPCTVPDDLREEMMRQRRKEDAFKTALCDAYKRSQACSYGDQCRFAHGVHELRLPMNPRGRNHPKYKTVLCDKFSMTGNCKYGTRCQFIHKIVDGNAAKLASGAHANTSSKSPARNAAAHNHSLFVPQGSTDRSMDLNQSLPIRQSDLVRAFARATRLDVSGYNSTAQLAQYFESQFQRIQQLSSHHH

[4] = alpha-synuclein stem-loop luciferase translation blockers – H4 neuroglioma cells, luminescence, confirmation (AID 1988); assay type: functional, cell-based
[5] = off-target signal loss in HeLa-CEM21 co-culture – HeLa F-luc CTL cells, cherry-picked, counter-screen for HIV-1 Env fusion inhibitor project, dose response (AID 652040); assay type: functional, cell-based;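 note: potency for signal decrease marking cytotoxic or nonspecific inhibition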
[6] = non-specific 3'UTR reporter inhibition in Clone20-Shn3RL – cell-based, Renilla luciferase, cherry-picked, counter-screen for Shn3 inhibitor project, dose response (AID 624133); assay type: functional
[7] = target: Protein-tyrosine kinase 6 (Homo sapiens, UniProt Q13882); assay type: functional
Sequence of Protein-tyrosine kinase 6 (Q13882 whole entry): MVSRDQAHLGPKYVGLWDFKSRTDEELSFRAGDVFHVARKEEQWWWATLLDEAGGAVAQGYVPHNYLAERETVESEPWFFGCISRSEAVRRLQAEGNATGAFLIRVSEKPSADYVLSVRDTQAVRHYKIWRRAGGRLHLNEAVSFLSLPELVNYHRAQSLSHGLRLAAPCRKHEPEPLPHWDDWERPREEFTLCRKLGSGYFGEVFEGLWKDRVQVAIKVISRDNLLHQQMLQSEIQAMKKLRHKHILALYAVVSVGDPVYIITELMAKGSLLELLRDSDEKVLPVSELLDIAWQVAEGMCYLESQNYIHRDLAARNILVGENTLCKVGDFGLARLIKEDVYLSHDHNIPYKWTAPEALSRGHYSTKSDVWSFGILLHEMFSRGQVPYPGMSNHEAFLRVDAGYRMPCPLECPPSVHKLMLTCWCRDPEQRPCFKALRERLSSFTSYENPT

[8] = target: Leukocyte tyrosine kinase receptor (Homo sapiens, UniProt P29376); assay: Navigating the Kinome. Panel member name: LTK; assay type: functional
[9] = target: Serine/threonine-protein kinase Chk2 (Homo sapiens, UniProt O96017); assay type: functional;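 note: CHEK2 entry within a kinome-wide screening panel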
[10] = target: Tyrosine-protein kinase SYK (Homo sapiens, UniProt P43405); assay type: functional
[11] = target: Serine/threonine-protein kinase N2 (Homo sapiens, UniProt Q16513); assay type: functional
Sequence of Serine/threonine-protein kinase N2 (Q16513 whole entry): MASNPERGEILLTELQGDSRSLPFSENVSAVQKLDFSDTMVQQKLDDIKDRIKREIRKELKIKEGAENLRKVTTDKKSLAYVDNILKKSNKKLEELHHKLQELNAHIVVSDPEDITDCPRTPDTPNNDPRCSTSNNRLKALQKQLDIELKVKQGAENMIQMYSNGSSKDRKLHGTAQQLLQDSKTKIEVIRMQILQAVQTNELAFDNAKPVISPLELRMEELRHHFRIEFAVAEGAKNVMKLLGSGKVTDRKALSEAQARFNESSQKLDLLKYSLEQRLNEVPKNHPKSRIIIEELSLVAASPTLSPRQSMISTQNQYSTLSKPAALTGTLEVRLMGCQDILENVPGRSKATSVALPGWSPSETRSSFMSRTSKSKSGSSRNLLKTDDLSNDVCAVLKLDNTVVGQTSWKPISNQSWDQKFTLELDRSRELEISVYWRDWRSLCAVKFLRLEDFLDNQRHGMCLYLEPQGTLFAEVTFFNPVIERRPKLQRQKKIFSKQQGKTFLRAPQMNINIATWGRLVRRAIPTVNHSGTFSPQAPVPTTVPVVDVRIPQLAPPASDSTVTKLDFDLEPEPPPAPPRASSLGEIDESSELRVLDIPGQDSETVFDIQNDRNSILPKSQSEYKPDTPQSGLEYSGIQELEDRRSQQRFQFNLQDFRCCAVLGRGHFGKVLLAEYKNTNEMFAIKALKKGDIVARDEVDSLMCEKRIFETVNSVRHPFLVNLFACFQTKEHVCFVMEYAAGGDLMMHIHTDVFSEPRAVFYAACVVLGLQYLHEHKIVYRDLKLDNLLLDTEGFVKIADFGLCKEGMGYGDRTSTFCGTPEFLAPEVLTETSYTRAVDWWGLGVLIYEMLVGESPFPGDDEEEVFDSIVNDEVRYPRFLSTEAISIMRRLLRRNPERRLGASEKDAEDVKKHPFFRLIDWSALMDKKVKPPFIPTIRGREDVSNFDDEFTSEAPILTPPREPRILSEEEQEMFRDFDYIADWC

[12] = target: MAP kinase-interacting serine/threonine-protein kinase 2 (Homo sapiens, UniProt Q9HBH9); assay type: functional
[13] = target: Leucine-rich repeat serine/threonine-protein kinase 2 (Homo sapiens, UniProt Q5S007); assay type: functional;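 note: value from a broad kinome-wide panel profiling study in which LRRK2 was one of the kinases tested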
[14] = target: High affinity nerve growth factor receptor (Homo sapiens, UniProt P04629); assay type: functional;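 note: NTRK1 tested as one member of a kinome-wide profiling panel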
Aurora kinase B = Aurora kinase B (Homo sapiens, UniProt Q96GD4); assay type: functional
Sequence of Aurora kinase B (Q96GD4 whole entry): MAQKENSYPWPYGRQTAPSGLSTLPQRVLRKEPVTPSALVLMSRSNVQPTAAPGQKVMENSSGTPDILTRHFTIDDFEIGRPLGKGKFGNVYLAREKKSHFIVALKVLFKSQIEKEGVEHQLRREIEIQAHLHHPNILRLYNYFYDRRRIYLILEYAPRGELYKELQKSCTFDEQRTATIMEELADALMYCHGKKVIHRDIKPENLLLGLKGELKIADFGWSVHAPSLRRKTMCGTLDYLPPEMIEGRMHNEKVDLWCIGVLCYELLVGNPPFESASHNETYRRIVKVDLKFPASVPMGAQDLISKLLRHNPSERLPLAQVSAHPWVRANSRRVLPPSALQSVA

[15] = target: G protein-coupled receptor kinase 5 (Homo sapiens, UniProt P34947); assay: Navigating the Kinome. Panel member name: GPRK5; assay type: functional
Sequence of G protein-coupled receptor kinase 5 (P34947 whole entry): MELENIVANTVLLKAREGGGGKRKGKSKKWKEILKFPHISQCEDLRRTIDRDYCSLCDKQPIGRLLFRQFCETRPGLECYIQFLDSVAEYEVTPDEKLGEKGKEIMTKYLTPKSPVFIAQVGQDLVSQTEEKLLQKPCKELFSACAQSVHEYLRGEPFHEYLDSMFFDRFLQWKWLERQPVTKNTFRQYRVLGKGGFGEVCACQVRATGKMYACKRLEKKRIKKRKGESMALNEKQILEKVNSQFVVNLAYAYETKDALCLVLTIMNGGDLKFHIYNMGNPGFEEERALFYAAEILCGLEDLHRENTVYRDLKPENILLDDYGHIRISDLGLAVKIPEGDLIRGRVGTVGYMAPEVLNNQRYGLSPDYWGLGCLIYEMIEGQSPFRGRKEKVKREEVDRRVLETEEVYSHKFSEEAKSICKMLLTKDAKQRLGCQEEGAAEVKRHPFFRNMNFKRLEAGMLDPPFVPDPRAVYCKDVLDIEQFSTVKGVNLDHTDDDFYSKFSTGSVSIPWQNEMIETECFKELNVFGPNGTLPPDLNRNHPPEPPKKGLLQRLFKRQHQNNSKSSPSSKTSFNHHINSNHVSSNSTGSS

[16] = target: Glycogen synthase kinase-3 beta (Homo sapiens, UniProt P49841); assay type: functional;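 note: value comes from a broad kinome profiling panel, with GSK3B as the panel member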
Sequence of Glycogen synthase kinase-3 beta (P49841 whole entry): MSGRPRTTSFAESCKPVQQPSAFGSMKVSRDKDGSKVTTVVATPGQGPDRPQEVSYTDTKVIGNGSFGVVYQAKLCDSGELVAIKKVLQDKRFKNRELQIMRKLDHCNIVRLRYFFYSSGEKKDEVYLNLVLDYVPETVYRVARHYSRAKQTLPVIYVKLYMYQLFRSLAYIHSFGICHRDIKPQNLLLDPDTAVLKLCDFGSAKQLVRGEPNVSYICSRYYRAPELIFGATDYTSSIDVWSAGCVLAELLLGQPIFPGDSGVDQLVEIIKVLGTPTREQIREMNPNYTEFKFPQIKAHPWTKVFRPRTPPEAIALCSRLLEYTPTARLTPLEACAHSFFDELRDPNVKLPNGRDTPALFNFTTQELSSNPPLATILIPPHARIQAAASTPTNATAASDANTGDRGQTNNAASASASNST

Nonstructural protein 1 = Nonstructural protein 1 (Influenza A virus, UniProt Q194T2); assay type: functional, Influenza A virus (A/California/07/2009(H1N1))
Sequence of Nonstructural protein 1 (Q194T2 whole entry): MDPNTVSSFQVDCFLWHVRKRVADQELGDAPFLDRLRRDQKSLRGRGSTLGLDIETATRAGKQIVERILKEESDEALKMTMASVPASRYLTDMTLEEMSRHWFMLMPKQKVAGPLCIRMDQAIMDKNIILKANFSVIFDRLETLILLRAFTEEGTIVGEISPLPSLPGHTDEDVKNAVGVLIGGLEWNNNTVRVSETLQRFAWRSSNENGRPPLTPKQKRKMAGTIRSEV

[17] = target: T3, Mannose-6-phosphate isomerase (Homo sapiens, UniProt P34949); assay: MPI inhibition at elevated mannose 6-phosphate – biochemical, fluorescence intensity, high mannose 6-phosphate, primary screen (AID 1220)
T3 sequence (P34949 whole entry): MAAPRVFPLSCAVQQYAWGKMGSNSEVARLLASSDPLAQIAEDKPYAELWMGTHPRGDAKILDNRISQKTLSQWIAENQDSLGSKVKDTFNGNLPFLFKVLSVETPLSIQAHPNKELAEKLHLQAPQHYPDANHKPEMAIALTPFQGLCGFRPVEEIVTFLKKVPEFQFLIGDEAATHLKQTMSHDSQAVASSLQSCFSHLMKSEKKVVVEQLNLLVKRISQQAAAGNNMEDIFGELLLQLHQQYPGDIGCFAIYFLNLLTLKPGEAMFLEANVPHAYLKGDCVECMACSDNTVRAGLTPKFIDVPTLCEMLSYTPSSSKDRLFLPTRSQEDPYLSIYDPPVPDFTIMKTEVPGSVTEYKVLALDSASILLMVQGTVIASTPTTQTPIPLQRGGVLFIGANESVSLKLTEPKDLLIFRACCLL

Beta-galactosidase = Beta-galactosidase (Escherichia coli, UniProt Q8VNN2); assay: detection-enzyme interference by beta-gal modulators – biochemical, E. coli enzyme, set 3, artefact control for CCR6 antagonist project, dose response (AID 504712); assay type: functional
Sequence of Beta-galactosidase (Q8VNN2 whole entry): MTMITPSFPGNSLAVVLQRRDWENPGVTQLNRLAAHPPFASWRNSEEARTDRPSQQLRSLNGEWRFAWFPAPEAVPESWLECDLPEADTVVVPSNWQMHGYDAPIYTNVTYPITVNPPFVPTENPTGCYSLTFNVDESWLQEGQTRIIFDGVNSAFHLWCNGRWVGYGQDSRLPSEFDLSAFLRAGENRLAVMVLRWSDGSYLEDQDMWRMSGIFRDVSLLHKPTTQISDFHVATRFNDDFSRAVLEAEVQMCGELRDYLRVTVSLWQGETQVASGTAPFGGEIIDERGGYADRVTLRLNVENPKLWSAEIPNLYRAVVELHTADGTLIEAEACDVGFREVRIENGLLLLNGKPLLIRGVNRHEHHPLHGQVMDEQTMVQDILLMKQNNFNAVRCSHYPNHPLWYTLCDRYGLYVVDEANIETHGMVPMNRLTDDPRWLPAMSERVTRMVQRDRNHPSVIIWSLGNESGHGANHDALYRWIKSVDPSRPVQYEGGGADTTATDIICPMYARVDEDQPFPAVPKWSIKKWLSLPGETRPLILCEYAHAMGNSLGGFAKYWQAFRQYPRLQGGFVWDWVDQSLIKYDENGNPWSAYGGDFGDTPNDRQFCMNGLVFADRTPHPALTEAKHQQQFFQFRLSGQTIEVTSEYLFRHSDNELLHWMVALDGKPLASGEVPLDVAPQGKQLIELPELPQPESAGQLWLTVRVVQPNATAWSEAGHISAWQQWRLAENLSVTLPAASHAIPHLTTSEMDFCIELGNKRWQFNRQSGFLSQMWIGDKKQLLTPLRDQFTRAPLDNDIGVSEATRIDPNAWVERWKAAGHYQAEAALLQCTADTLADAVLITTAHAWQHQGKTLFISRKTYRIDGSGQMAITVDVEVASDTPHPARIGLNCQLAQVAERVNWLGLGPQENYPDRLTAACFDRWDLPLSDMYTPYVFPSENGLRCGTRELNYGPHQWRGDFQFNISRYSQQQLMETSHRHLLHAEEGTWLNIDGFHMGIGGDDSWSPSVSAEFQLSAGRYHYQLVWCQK

[18] = target: Dual specificity mitogen-activated protein kinase kinase 2 (Homo sapiens, UniProt P36507); assay: Navigating the Kinome. Panel member name: MAP2K2; assay type: functional
[19] = target: Tyrosine-protein kinase Fer (Homo sapiens, UniProt P16591); assay type: functional;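 note: FER tested as one member of a kinome panel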
[20] = target: Cyclin-dependent kinase 7 (Homo sapiens, UniProt P50613); assay type: functional;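 note: value comes from a kinome-wide kinase profiling panel in which CDK7 is one member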
[21] = target: Serine/threonine-protein kinase TBK1 (Homo sapiens, UniProt Q9UHD2); assay: Navigating the Kinome. Panel member name: TBK1; assay type: functional
Sequence of Serine/threonine-protein kinase TBK1 (Q9UHD2 whole entry): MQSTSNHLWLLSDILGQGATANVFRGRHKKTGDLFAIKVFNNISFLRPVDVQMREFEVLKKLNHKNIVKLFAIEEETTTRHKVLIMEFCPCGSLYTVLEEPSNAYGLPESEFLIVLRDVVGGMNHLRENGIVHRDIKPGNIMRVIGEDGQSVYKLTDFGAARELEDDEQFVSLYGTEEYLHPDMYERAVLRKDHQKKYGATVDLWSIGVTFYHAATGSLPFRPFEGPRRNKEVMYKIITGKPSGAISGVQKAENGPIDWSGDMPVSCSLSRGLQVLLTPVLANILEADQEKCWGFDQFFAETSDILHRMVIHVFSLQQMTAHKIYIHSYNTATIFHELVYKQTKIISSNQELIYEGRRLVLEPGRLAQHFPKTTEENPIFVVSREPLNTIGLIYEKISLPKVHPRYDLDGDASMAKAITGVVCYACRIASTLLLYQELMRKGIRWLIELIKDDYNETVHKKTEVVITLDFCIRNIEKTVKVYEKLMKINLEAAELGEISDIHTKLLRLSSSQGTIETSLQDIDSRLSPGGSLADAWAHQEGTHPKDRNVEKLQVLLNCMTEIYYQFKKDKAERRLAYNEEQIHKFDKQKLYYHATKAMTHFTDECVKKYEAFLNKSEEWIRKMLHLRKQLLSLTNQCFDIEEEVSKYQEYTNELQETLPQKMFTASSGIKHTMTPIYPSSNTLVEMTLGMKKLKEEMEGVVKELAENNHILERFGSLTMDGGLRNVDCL

[22] = target: Platelet-derived growth factor receptor beta (Homo sapiens, UniProt P09619); assay type: functional;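 note: value comes from a kinome panel, with PDGFRB tested as one panel member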

COC(=O)CCS(=O)(=O)c1nc(-c2ccccc2)cc(C(F)(F)F)n1
CC50 [1]: 25.2 µM (active)
IC50 [2]: 28.4 µM (not active)

O=C(O)c1ccc(NC2=C(Cl)C(=O)c3ccccc3C2=O)cc1
IC50 (Coagulation factor XII): > 50 µM (inactive)

O=C(O)c1ccc2c3c(ncnc13)-c1ccccc1C2=O
IC50 (14-3-3 protein gamma): > 50 µM (not active)
EC50 [3]: 34.8 µM (active)
EC50 [4]: 2.45 µM (active)

CCOC(=O)c1c2c(n(Cc3ccccc3)c1C)C(=O)C(=O)c1ccccc1-2
AC50 [5]: 6.77 µM (active)
AC50 [6]: 5.03 µM (active)

Cc1ccc2nccc(NC(=O)Nc3cccc(C(F)(F)F)n3)c2c1
Ki [7]: 0.398 µM (active)
Ki [8]: > 3.16 µM (inactive)
Ki [9]: > 1.58 µM (inactive)
Ki [10]: > 1.58 µM (inactive)
Ki [11]: > 7.94 µM (inactive)
Ki [12]: > 10 µM (inactive)
Ki [13]: > 2.51 µM (inactive)
Ki [14]: > 2.51 µM (inactive)
Ki (Aurora kinase B): 0.251 µM (active)
Ki [15]: > 3.98 µM (inactive)

Cc1nn(C)c2sc3c(=O)[nH]cnc3c12
Ki [16]: 39.8 µM (active)

Cc1c(/N=C2\C=CC(=O)c3ccccc32)c(=O)n(-c2ccccc2)n1C
IC50 (Nonstructural protein 1): 28.7 µM (active)
IC50 [17]: 46.4 µM (active)
IC50 (Beta-galactosidase): > 66.6 µM (inactive)

COc1cc2c(cc1F)C(c1ccccc1Cl)=Nc1c(n[nH]c1C)N2 [RG-1530]
Ki [18]: 2.51 µM (active)
Ki [19]: 0.126 µM (active)
Ki [20]: 0.631 µM (active)
Ki [21]: > 2.51 µM (inactive)
Ki [22]: 0.0501 µM (active)
